Activity calls are given as the source filed them. How the calls were made is not given here.
Target: Peptidyl-prolyl cis-trans isomerase FKBP1A (Homo sapiens) (UniProt P62942)
Assay: small-molecule binding to FKBP12 – biophysical, NMR detection (AID 608)
Conditions: purified FKBP12

Peptidyl-prolyl cis-trans isomerase FKBP1A (Homo sapiens), sequence (P62942 whole entry, looked up): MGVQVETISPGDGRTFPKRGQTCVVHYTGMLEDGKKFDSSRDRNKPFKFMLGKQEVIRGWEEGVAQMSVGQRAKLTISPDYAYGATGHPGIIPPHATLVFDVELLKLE

| SMILES | Kd |
| --- | --- |
| O=C1CSC(=O)N1c1cccc(O)c1 | > 4 mM (inactive) |
| Cn1cc(C(=O)N/N=C/c2ccccc2)ccc1=O | > 4 mM (inactive) |
| O=Cc1c(N2CCOCC2)nc2ccccn2c1=O | > 4 mM (inactive) |
| Cc1cc2ncc(C(=O)O)c(C)n2n1 | > 4 mM (inactive) |
| COC(=O)c1cccs1 | > 4 mM (inactive) |
| NC(=O)CCN1C(=O)c2ccccc2C1=O | > 4 mM (inactive) |
| CC1(C)C[C@@H]2C(=O)CC[C@H]3O[C@]3(C)CC[C@H]21 | > 4 mM (inactive) |
| Cn1nnc2cc(C(=O)Nc3cccnc3)ccc21 | > 4 mM (inactive) |
| Nc1cc(N)nc(SCc2ccccc2)n1 | > 4 mM (inactive) |
| Cc1cc(C(=O)NC(C)c2ccncc2)no1 (centres undefined) | > 4 mM (inactive) |
| Cc1cc2cc3c(C)cc(=O)oc3c(C)c2o1 | > 4 mM (inactive) |
| Nc1cccc(-c2cnco2)c1 | > 4 mM (inactive) |
| Cc1nnc(SCC(=O)N2CCCCC2)s1 | > 4 mM (inactive) |
| Cc1cc(=O)[nH]c(N)n1 | > 4 mM (inactive) |
| Cn1cnnc1Sc1ncnc(N)c1[N+](=O)[O-] | > 4 mM (inactive) |
| O=C(c1ccccc1)N1CCNCC1 | > 4 mM (inactive) |
| O=C(O)c1ccccc1N1CCOCC1 | > 4 mM (inactive) |
| Cc1nc2ccc(F)cc2cc1C(=O)NCc1ccco1 | > 4 mM (inactive) |
| CC(=O)N1CCC(NC2CCCCCC2)CC1 | > 4 mM (inactive) |
| O=C(O)C1CC(=O)N(CCc2ccc(Cl)cc2)C1 (centres undefined) | > 4 mM (inactive) |
| NCc1cccc2c1OCCO2 | > 4 mM (inactive) |
| COC(=O)c1cn(C(=O)OC)c2ccccc12 | > 4 mM (inactive) |
| Cc1cc(S(=O)(=O)N2CCOCC2)ccc1F | > 4 mM (inactive) |
| COCc1nn2c(N)c(C#N)cnc2c1-c1ccccc1 | > 4 mM (inactive) |
| NC(=O)C1CCN(c2nccc(C(F)(F)F)n2)CC1 | > 4 mM (inactive) |

| SMILES | Kd |
| --- | --- |
| CCC(=O)Nc1cc(C(C)C)c(O)cc1C | > 4 mM (inactive) |
| COc1c2c(cc3cc[n+](C)cc13)OCO2 | > 4 mM (inactive) |
| COCC(=O)Nc1cc2c3c(c1)CCN3C(=O)CC2 | > 4 mM (inactive) |
| NC(=O)CSCc1c(Cl)cccc1Cl | > 4 mM (inactive) |
| CC1(C)Cc2nc3n[nH]c(N)c3cc2CO1 | > 4 mM (inactive) |
| CC[C@@H]1[C@@H](O)N2C3C[C@H]1C1C(O)[C@]4(C[C@@H]12)c1ccccc1N(C)[C@@H]34 (some centres undefined) | > 4 mM (inactive) |
| Cc1ccc2c(C)c(C(=O)Nc3nnc(C)s3)oc2c1 | > 4 mM (inactive) |
| CC(=O)NCCc1cc2ccc(C)c(C)c2[nH]c1=O | > 4 mM (inactive) |
| Cc1nnc(N2CCN(c3ccccc3)CC2)[nH]c1=O | > 4 mM (inactive) |
| Nc1ccc(-n2cccn2)cc1 | > 4 mM (inactive) |
| Cn1[nH]c(C(F)(F)F)cc1=O | > 4 mM (inactive) |
| Cc1nnsc1-c1onc(C)c1C(=O)O | > 4 mM (inactive) |
| COC(=O)/C(=C1\OC(=O)C(c2ccccc2)C1=O)c1ccccc1 (centres undefined) | > 4 mM (inactive) |
| O=C1C=C(Nc2ccccc2O)c2ccccc2C1=O | > 4 mM (inactive) |
| CC1(C)Cc2cccc(C(=O)O)c2O1 | > 4 mM (inactive) |
| O=C(NN1C(=O)C2C3C=CC(C3)C2C1=O)C1CC=CCC1 (centres undefined) | > 4 mM (inactive) |
| O=C(COc1ccccc1)N1CCOCC1 | inactive |
| COc1ccc2ccc(=O)oc2c1 | > 4 mM (inactive) |
| COC(=O)c1oc2ccc(Cl)cc2c1NC(C)=O | > 4 mM (inactive) |
| COc1ccc(C)cc1S(=O)(=O)NC1CCCC1 | > 4 mM (inactive) |
| O=C(CN1C(=O)CCC1=O)c1ccccc1 | > 4 mM (inactive) |
| CN(C)c1nc(N)nc(Cn2ccnc2)n1 | > 4 mM (inactive) |
| c1ccc2c(c1)ncn2CCn1cnc2ccccc21 | > 4 mM (inactive) |
| Cc1nnc2n(c1=O)N=C(c1ccccc1)CS2 | > 4 mM (inactive) |
| CCNS(=O)(=O)c1ccc(OC)c(C)c1 | > 4 mM (inactive) |

| SMILES | Kd |
| --- | --- |
| c1ccc2[nH]c(NCCN3CCOCC3)nc2c1 | > 4 mM (inactive) |
| CC1(C)NCCN2C(=O)CSC21 (centres undefined) | > 4 mM (inactive) |
| Nc1cc(-c2ccco2)[nH]n1 | > 4 mM (inactive) |
| Cn1c(NCc2ccccc2O)nc2ccccc21 | > 4 mM (inactive) |
| Oc1cnc2ccccc2c1CN1CCOCC1 | > 4 mM (inactive) |
| COc1ccc([C@H]2COc3c(ccc(O)c3OC)C2)c(OC)c1O | > 4 mM (inactive) |
| C=C1C2CC[C@H]3[C@]4(C)C[C@H](OC5OC(CO)C(OS(=O)(=O)O)C(OS(=O)(=O)O)C5OC(=O)CC(C)C)C[C@@H](C(=O)O)[C@H]4CC[C@]3(C2)[C@H]1O (some centres undefined) | > 4 mM (inactive) |
| Cc1nc2[nH]onc2c2nccc(=O)c12 | > 4 mM (inactive) |
| O=C1CCC(=O)N1c1cccnc1 | > 4 mM (inactive) |
| O=C(Nc1ccc2c(c1)OCO2)c1ccc(=O)[nH]n1 | > 4 mM (inactive) |
| NC(=O)c1cccnc1Oc1ccccc1 | > 4 mM (inactive) |
| Cc1occc1C(=O)Nc1ccc2c(c1)OCO2 | > 4 mM (inactive) |
| Cc1ccc(/C=C2/C(=O)N=C(N)N2C)s1 | > 4 mM (inactive) |
| COc1ccc2c(c1OC)C(=O)O[C@H]2[C@H]1c2cc3c(cc2CCN1C)OCO3 | > 4 mM (inactive) |
| CSc1ccc2nnc(-c3cccnc3)n2n1 | > 4 mM (inactive) |
| O=c1c2ccccc2oc2ccc(O)cc12 | > 4 mM (inactive) |
| O=C(Nc1cnccn1)c1ccncc1 | > 4 mM (inactive) |
| NC(=O)C1CCCN1S(=O)(=O)c1ccc(F)cc1 (centres undefined) | > 4 mM (inactive) |
| Nc1nnc(COc2cccc(C(F)(F)F)c2)s1 | > 4 mM (inactive) |
| CCc1cc2c(SCC(=O)O)ncnc2s1 | > 4 mM (inactive) |
| NC(=O)c1ccc(NC(=O)C2CC2)cc1 | > 4 mM (inactive) |
| COC(=O)NNc1ncnc(N)c1[N+](=O)[O-] | > 4 mM (inactive) |
| CC(=O)NC(=S)Nc1ccccc1C(N)=O | > 4 mM (inactive) |
| Cn1[nH]c2nc3[nH]n(C)c(=O)c3c(-c3ccccc3)c2c1=O | > 4 mM (inactive) |
| Cn1cnnc1SCC(=O)Nc1nccs1 | > 4 mM (inactive) |

| SMILES | Kd |
| --- | --- |
| O=C(O)c1cc2ccccc2o1 | > 4 mM (inactive) |
| O=C1NC(=O)C(Cc2cccs2)C(=O)N1 | > 4 mM (inactive) |
| OC(CCl)c1ccc(-n2cncn2)cc1 (centres undefined) | > 4 mM (inactive) |
| CCOC(=O)c1csc(N)n1 | > 4 mM (inactive) |
| CCc1nnc(NC(C)=O)s1 | > 4 mM (inactive) |
| COc1cccc(S(=O)(=O)Nc2cccnc2)c1 | > 4 mM (inactive) |
| c1ccc2sc(CCc3nc4ccccc4s3)nc2c1 | inactive |
| CC(=O)c1cc(C(N)=O)c(=S)[nH]c1C | > 4 mM (inactive) |
| O=C1c2cccc3cc(S(=O)(=O)O)cc(c23)C(=O)N1O | > 4 mM (inactive) |
| Cc1ccc(-c2nnc3sc(-c4ccncc4)nn23)cc1 | > 4 mM (inactive) |
| CCOC(=O)c1cnc2n(c1=O)CCS2 | > 4 mM (inactive) |
| Cn1cc(Cl)c(C(=O)Nc2ccncc2)n1 | > 4 mM (inactive) |
| COc1ccc(-c2coc3cc(O)ccc3c2=O)c(OC)c1 | > 4 mM (inactive) |
| O=C(c1ccc(Cl)s1)N1CCOCC1 | > 4 mM (inactive) |
| COc1c(CC=C(C)C)c2c(c3oc(=O)c(-c4ccc(O)cc4)c(O)c13)C=CC(C)(C)O2 | > 4 mM (inactive) |
| CCNC(=S)NS(=O)(=O)c1ccccc1 | > 4 mM (inactive) |
| CCn1nnc(NC(=O)c2cc3ccccc3o2)n1 | > 4 mM (inactive) |
| CCOC(=O)c1c(SC)nc(=O)[nH]c1C | > 4 mM (inactive) |
| Nc1ccc2c(c1)S(=O)(=O)C=C2 | > 4 mM (inactive) |
| O=C(/C=C/c1ccco1)NC1=NCCS1 | > 4 mM (inactive) |
| CCCCC(Nc1n[nH]c(=O)[nH]c1=O)C(=O)O (centres undefined) | > 4 mM (inactive) |
| CSc1nc2nc(C)cc(=O)n2[nH]1 | > 4 mM (inactive) |
| CN1C2CC3C[C@H]1C(O3)C2O (some centres undefined) | > 4 mM (inactive) |
| COC(=O)c1c(C)cc(OC)cc1O | > 4 mM (inactive) |
| COc1ccc(C(=O)NNC(=S)NC(C)=O)cc1 | > 4 mM (inactive) |

| SMILES | Kd |
| --- | --- |
| O=C(Oc1ccc2c(c1)CCC2)N1CCOCC1 | > 4 mM (inactive) |
| O=C(NC1=NCCS1)c1cccc(F)c1 | > 4 mM (inactive) |
| CC(C)c1c(O)c(-c2cc3c(c(C(C)C)c2O)CCC2C(C)(C)CCC[C@]32C)cc2c1CCC1C(C)(C)CCC[C@]21C (some centres undefined) | > 4 mM (inactive) |
| CSc1nc(-c2ccco2)nn1S(C)(=O)=O | > 4 mM (inactive) |
| O=c1[nH]cc(CN2CCOCC2)c(=O)[nH]1 | > 4 mM (inactive) |
| O=C(O)CCCCCCCC(=O)O | > 4 mM (inactive) |
| NC(=O)CCn1ncc2ccccc21 | > 4 mM (inactive) |
| CCOc1ccc(C)cc1S(=O)(=O)n1ccc(C)n1 | > 4 mM (inactive) |
| CC(=O)N1CC2(C)CN(C(C)=O)CC(C)(C1)C2 | > 4 mM (inactive) |
| N#Cc1nc(-c2ccccc2Cl)oc1N1CCOCC1 | > 4 mM (inactive) |
| Nc1ccc(S(=O)(=O)N2CCCCC2)cc1 | > 4 mM (inactive) |
| O=C(CSc1ccnc(=O)[nH]1)NCc1ccco1 | > 4 mM (inactive) |
| CC(=O)NC12CC3CC(C)(C1)CC(NC(C)=O)(C3)C2 | > 4 mM (inactive) |
| NC(=O)c1sc2ccccc2c1Cl | > 4 mM (inactive) |
| Cc1cc(C(=O)Nn2cnnc2)cs1 | > 4 mM (inactive) |
| CCOC(=O)C1=C(O)CCN(C)C1 | > 4 mM (inactive) |
| CC(=O)c1c(C)n(O)c2ccc3nonc3c12 | > 4 mM (inactive) |
| O=C(O)c1cc(O)c2c(c1)C(=O)c1cc(O)cc(O)c1C2=O | > 4 mM (inactive) |
| CNS(=O)(=O)c1cc(OC)ccc1OC | > 4 mM (inactive) |
| Cc1ccc(NC(=O)CN2C(=O)CSC2=O)cc1 | > 4 mM (inactive) |
| CCCc1cc(=O)[nH]c2nnc(SCC(C)=O)n12 | > 4 mM (inactive) |
| O=C(O)Cn1c(C(F)(F)F)nc2ccccc21 | > 4 mM (inactive) |
| O=[N+]([O-])c1ccc(NS(=O)(=O)N2CCCCC2)cc1 | 0.06 mM |
| Cc1cc(C)nc(/N=C(/N)N2CCN(C)CC2)n1 | > 4 mM (inactive) |
